# Experiment: HPLC stability of reconstituted aqueous ICG composition (% label claim over time)
# Format: physicochemical
# Procedure: The HPLC testing utilized a Supelcosil LC-18-DB, 3 μm, 4.6×150 mm HPLC column and a supelcosil LC-18-DB, 3 μm, 4.6×33 mm guard column. The mobile phase, which consists of 0.1% phosphoric acid (Solvent A) and 100% acetonitrile (Solvent B), was fed to the columns at a flow rate of 1 ml/min, with the mobile phase composition being varied as follows:
# An ICG standard was then prepared by dissolving approximately 5.5 mg of ICG (IC-GREEN™) in 10.0 ml of a diluent comprising acetonitrile and water in a 1:1 ratio. The ICG samples to be measured (IC-GREEN™) were then prepared by diluting each sample in the same diluent (1:1 acetonitrile to water) such that the estimated concentration of ICG in each sample was approximately 0.5 mg/ml. The dilution factor was determined by dividing the final volume of the sample by the volume of the ICG sample aliquot initially added. Then, five 10.0 μL quantities of the ICG standard were injected into the HPLC column and the mean peak area was determined. Next, a series of 10.0 μL injections of the samples was completed, and the mean peak area for each sample was determined. The ICG concentration for each sample was then calculated using the following formula:
# [ICG in mg/ml]=[STD](ASX/ASTD)(DF)
# where [STD] is the ICG concentration of the standard, ASX is the mean peak area of the sample, ASTD is the mean peak area of the standard, and DF is the dilution factor. The relative concentration of ICG present in the sample (wt. % label claim) was then determined by dividing the concentration of the sample by the initial concentration upon dissolution, then multiplying the result by one hundred.
smiles,measurement,setting,value
"CC1(C)C(/C=C/C=C/C=C/C=C2\N(CCCCS(=O)(=O)O)c3ccc4ccccc4c3C2(C)C)=[N+](CCCCS(=O)(=O)[O-])c2ccc3ccccc3c21 [ICG, Indocyanine green]",stability of aqueous compositions having relatively high ICG concentrations relative to relatively low ICG concentrations,,more stable
same,time after reconstitution at which ICG content corresponds to 95 wt. % based on the label claim,5 mg/ml reconstituted aqueous ICG composition,about 18 hours
same,relative concentration (% label claim) of ICG in aqueous ICG composition,for more than ten hours after the lyophilized ICG is reconstituted,above 90 wt. %

# From patent US20040156782A1, “Methods of using indocyanine green (ICG) dye” (Akorn, Inc., priority 2003, published 2004)
